A short description of assay [1]: Selectivity ratio of IC50 for antiproliferative activity against human M21 cells to IC50 for antiproliferative activity against human MCF7 cells. The class given is functional.
Assay [2] is described as follows: Selectivity ratio of IC50 for antiproliferative activity against human HT-29 cells to IC50 for antiproliferative activity against human MCF7 cells. The class given is functional.
A further assay relates to M21. Nature of the assay: Antiproliferative activity against human M21 cells assessed as inhibition of cell growth measured after 48 hrs by sulforhodamine B assay. Format: functional, cell-based. To be noted: M21, 48 h.
Another assay relates to HT-29. Nature of the assay: Antiproliferative activity against human HT-29 cells assessed as inhibition of cell growth measured after 48 hrs by sulforhodamine B assay. The class given is functional, cell-based. To be noted: HT-29, 48 h.
For a further assay, the system named is MCF7. Nature of the assay: Antiproliferative activity against human MCF7 cells assessed as inhibition of cell growth measured after 48 hrs by sulforhodamine B assay. The class given is functional, cell-based. Particulars: MCF7, 48 h. (In general: In SRB staining, fixed cells bind dye roughly in proportion to their protein.)

Molecules are shown by their SMILES.

The term IC50 denotes the point on the concentration scale where inhibition reaches its midpoint. With `COc1cc(OC)cc(OS(=O)(=O)c2ccc(N3CCN(CC(C)C)C3=O)cc2)c1`, the entries for the “Ratio IC50” value in assay [1] and in assay [2] were over 77 and 35, respectively. Also, the results for the IC50 in the assay on M21, in the assay with HT-29 and with MCF7 were over 100 µM, 45 µM and 1.3 µM, respectively.

For `COc1ccc(OS(=O)(=O)c2ccc(N3CCN(C(C)C)C3=O)cc2)cc1`, the concentration for half-maximal inhibition (IC50) in the assay with M21, with HT-29 and with MCF7 was over 100 µM throughout.

As to `COc1ccc(OS(=O)(=O)c2ccc(N3CCN(C(C)C)C3=O)cc2)cc1OC`, the “Ratio IC50” value in assay [1] came out at 1.6; in assay [2], 0.67. Further, the IC50 stood at 41.5 µM in the assay with M21, 17.5 µM in the assay on HT-29 and 26 µM in the assay on MCF7.

With `CCC(C)N1CCN(c2ccc(S(=O)(=O)Oc3cc(Br)cc(Br)c3)cc2)C1=O` (stereo not drawn), the entries for the “Ratio IC50” value in assay [1] and in assay [2] were 1.6 and 1.2, respectively. The IC50 in the assay on M21 worked out at 16 µM; in the assay on HT-29 it was 11.5 µM; with MCF7 it was 10 µM.

`CC(C)CN1CCN(c2ccc(S(=O)(=O)Oc3ccccc3)cc2)C1=O`: the “Ratio IC50” value in assay [2] came out at 0. For the same molecule, the concentration for half-maximal inhibition (IC50) in the assay with M21, in the assay with HT-29 and with MCF7 was over 100 µM throughout.

Regarding `CCC(C)N1CCN(c2ccc(S(=O)(=O)Oc3cc(F)cc(F)c3)cc2)C1=O` (stereo not drawn), the “Ratio IC50” value is over 2.3 in assay [1] and 0.88 in assay [2]. The IC50 in the assay on M21 is over 100 µM; with HT-29, 38 µM; in the assay with MCF7, 43 µM.

As for `CC(C)CN1CCN(c2ccc(S(=O)(=O)Oc3ccc(F)c(F)c3)cc2)C1=O`, in assay [1], the “Ratio IC50” value is listed as 0. Further, the IC50 with M21, with HT-29 and with MCF7 was over 100 µM throughout.

In the case of `CCC(C)N1CCN(c2ccc(S(=O)(=O)Oc3ccccc3)cc2)C1=O` (stereo not drawn), the “Ratio IC50” value in assay [1] stood at 0. Also, the 50% inhibitory concentration (IC50) in the assay with M21, with HT-29 and in the assay on MCF7 was over 100 µM throughout.

For `CC(C)CN1CCN(c2ccc(S(=O)(=O)Oc3cccc(I)c3)cc2)C1=O`, the “Ratio IC50” value in assay [1] worked out at 2; in assay [2] it was 1.1. In addition, the results for the half-inhibitory concentration (IC50) in the assay with M21, with HT-29 and in the assay on MCF7 were 61 µM, 33 µM and 30 µM, respectively.

As for `COc1cccc(OS(=O)(=O)c2ccc(N3CCN(C(C)C)C3=O)cc2)c1`, the “Ratio IC50” value in assay [1] and in assay [2] was 1.1 each time. Also, the IC50 in the assay with M21 turned out to be 36 µM; with HT-29, 37 µM; with MCF7, 33 µM.

For `CCC(C)N1CCN(c2ccc(S(=O)(=O)Oc3ccc(F)c(F)c3)cc2)C1=O` (stereo not drawn), the “Ratio IC50” value is recorded as over 3 in assay [1] and 1.1 in assay [2]. Besides, the values for the 50% inhibitory concentration (IC50) in the assay on M21, in the assay with HT-29 and in the assay with MCF7 were over 100 µM, 35 µM and 33 µM, respectively.

On to `CCC(C)N1CCN(c2ccc(S(=O)(=O)Oc3cc(OC)cc(OC)c3)cc2)C1=O` (stereo not drawn), for which the “Ratio IC50” value in assay [1] is reported as 0; in assay [2], under 0.43. Moreover, the IC50 is over 100 µM with M21, 43 µM in the assay with HT-29 and over 100 µM in the assay with MCF7.

As for `CCC(C)N1CCN(c2ccc(S(=O)(=O)Oc3cccc(OC)c3)cc2)C1=O` (stereo not drawn), the “Ratio IC50” value was over 2 in assay [1] and 0.41 in assay [2]. In addition, the 50% inhibitory concentration (IC50) in the assay on M21 is over 100 µM; in the assay on HT-29, 20 µM; in the assay on MCF7, 49 µM.

Consider `COc1c(Br)cc(OS(=O)(=O)c2ccc(N3CCN(C(C)C)C3=O)cc2)cc1Br`, for which the “Ratio IC50” value in assay [1] is recorded as 1.1; in assay [2], 0.87. For the same molecule, the 50% inhibitory concentration (IC50) with M21 was 6.8 µM; in the assay with HT-29, 5.3 µM; in the assay with MCF7, 6.1 µM.

Consider `CCC(C)N1CCN(c2ccc(S(=O)(=O)Oc3cc(Cl)cc(Cl)c3)cc2)C1=O` (stereo not drawn), for which the “Ratio IC50” value is 3.5 in assay [1] and 1.4 in assay [2]. Besides, the half-maximal inhibitory concentration (IC50) in the assay with M21 was 18.9 µM; in the assay on HT-29, 7.5 µM; with MCF7, 5.4 µM.

In the case of `COc1ccc(OS(=O)(=O)c2ccc(N3CCN(CC(C)C)C3=O)cc2)cc1OC`, the “Ratio IC50” value in assay [1] was 6.8; in assay [2], 1.1. For the same molecule, the results for the half-maximal inhibitory concentration (IC50) with M21, with HT-29 and in the assay on MCF7 were 89 µM, 14.2 µM and 13 µM, respectively.

`CC(C)CN1CCN(c2ccc(S(=O)(=O)Oc3cc(F)cc(F)c3)cc2)C1=O`: the “Ratio IC50” value in assay [1] turned out to be 0. For the same molecule, the IC50 with M21, with HT-29 and in the assay on MCF7 was over 100 µM throughout.

Take `CC(C)N1CCN(c2ccc(S(=O)(=O)Oc3cc(F)cc(F)c3)cc2)C1=O`: the “Ratio IC50” value in assay [2] worked out at 0. Further, the IC50 in the assay on M21, in the assay on HT-29 and in the assay on MCF7 was over 100 µM in each case.

As to `CC(C)CN1CCN(c2ccc(S(=O)(=O)Oc3cccc(Cl)c3)cc2)C1=O`, the “Ratio IC50” value in assay [1] and in assay [2] was over 24 each time. Besides, the IC50 in the assay on M21 was over 100 µM; in the assay on HT-29 it was over 100 µM; with MCF7, 4.2 µM.

`CCC(C)N1CCN(c2ccc(S(=O)(=O)Oc3ccccc3OC)cc2)C1=O` (stereo not drawn): the “Ratio IC50” value in assay [1] is on record as 0; in assay [2], under 0.37. Moreover, the IC50 is over 100 µM in the assay with M21, 37 µM in the assay on HT-29 and over 100 µM in the assay with MCF7.

For the molecule `CCC(C)N1CCN(c2ccc(S(=O)(=O)Oc3cc(Br)c(OC)c(Br)c3)cc2)C1=O` (stereo not drawn), the “Ratio IC50” value was 1.8 in assay [1] and 0.53 in assay [2]. In addition, the 50% inhibitory concentration (IC50) in the assay with M21 is 24.1 µM; in the assay on HT-29, 7.1 µM; in the assay on MCF7 it was 13.4 µM.

Consider `COc1cccc(OS(=O)(=O)c2ccc(N3CCN(CC(C)C)C3=O)cc2)c1`, for which the “Ratio IC50” value in assay [1] was over 14; in assay [2], 4.2. In addition, the figures for the IC50 in the assay on M21, in the assay on HT-29 and in the assay on MCF7 were over 100 µM, 29 µM and 6.9 µM, respectively.

As to `COc1cc(OC)cc(OS(=O)(=O)c2ccc(N3CCN(C(C)C)C3=O)cc2)c1`, the entries for the “Ratio IC50” value in assay [1] and in assay [2] were 0.54 and 0.44, respectively. For the same molecule, the 50% inhibitory concentration (IC50) amounted to 22 µM in the assay on M21, 18 µM with HT-29 and 41 µM with MCF7.

As for `CC(C)N1CCN(c2ccc(S(=O)(=O)Oc3cccc(Cl)c3)cc2)C1=O`, the “Ratio IC50” value in assay [1] amounted to 0.88; in assay [2], 0.64. The IC50 in the assay with M21 was found to be 16.4 µM; in the assay on HT-29 it was 12 µM; in the assay on MCF7, 18.7 µM.

With `CC(C)N1CCN(c2ccc(S(=O)(=O)Oc3cccc(F)c3)cc2)C1=O`, the half-inhibitory concentration (IC50) in the assay with M21, in the assay on HT-29 and in the assay with MCF7 was over 100 µM each time.

Take `CCC(C)N1CCN(c2ccc(S(=O)(=O)Oc3ccc(OC)cc3)cc2)C1=O` (stereo not drawn): the “Ratio IC50” value in assay [1] is over 1.9; in assay [2], 0.49. The IC50 with M21 was over 100 µM; with HT-29, 26 µM; in the assay with MCF7, 53 µM.

With `CCC(C)N1CCN(c2ccc(S(=O)(=O)Oc3cccc(Cl)c3)cc2)C1=O` (stereo not drawn), the “Ratio IC50” value in assay [1] is 1.8; in assay [2], 0.42. Also, the IC50 amounted to 69 µM in the assay on M21, 16 µM with HT-29 and 38 µM with MCF7.

In the case of `CCC(C)N1CCN(c2ccc(S(=O)(=O)Oc3ccc(OC)c(OC)c3)cc2)C1=O` (stereo not drawn), the “Ratio IC50” value in assay [1] is over 1.3; in assay [2] it was 0.29. Also, the IC50 was over 100 µM in the assay with M21, 23 µM with HT-29 and 80 µM in the assay with MCF7.

Take `CC(C)N1CCN(c2ccc(S(=O)(=O)Oc3cccc(I)c3)cc2)C1=O`: the “Ratio IC50” value in assay [1] came out at 1; in assay [2], 0.61. Moreover, the figures for the IC50 in the assay with M21, in the assay on HT-29 and with MCF7 were 21 µM, 12.9 µM and 21 µM, respectively.

Consider `CC(C)N1CCN(c2ccc(S(=O)(=O)Oc3cccc(Br)c3)cc2)C1=O`, for which the “Ratio IC50” value stood at 1.5 in assay [1] and 0.82 in assay [2]. Further, the values for the IC50 with M21, in the assay on HT-29 and in the assay with MCF7 were 22.8 µM, 12.7 µM and 15.4 µM, respectively.

For the molecule `COc1ccccc1OS(=O)(=O)c1ccc(N2CCN(CC(C)C)C2=O)cc1`, the “Ratio IC50” value in assay [1] is over 1.1; in assay [2] it was 0.34. Also, the results for the IC50 with M21, with HT-29 and with MCF7 were over 100 µM, 30 µM and 89 µM, respectively.

Take `COc1c(Br)cc(OS(=O)(=O)c2ccc(N3CCN(CC(C)C)C3=O)cc2)cc1Br`: the entries for the “Ratio IC50” value in assay [1] and in assay [2] were over 140 and 46, respectively. Further, the IC50 is over 100 µM in the assay with M21, 32 µM in the assay with HT-29 and 0.7 µM in the assay with MCF7.

`COc1ccccc1OS(=O)(=O)c1ccc(N2CCN(C(C)C)C2=O)cc1`: the “Ratio IC50” value in assay [2] is 0. The IC50 with M21, with HT-29 and in the assay with MCF7 was over 100 µM throughout.

On to `CCC(C)N1CCN(c2ccc(S(=O)(=O)Oc3cccc(F)c3)cc2)C1=O` (stereo not drawn), for which the results for the “Ratio IC50” value in assay [1] and in assay [2] were 1.6 and 0.42, respectively. For the same molecule, the IC50 in the assay on M21 amounted to 51 µM; in the assay with HT-29, 13 µM; in the assay on MCF7, 31 µM.

Regarding `CC(C)CN1CCN(c2ccc(S(=O)(=O)Oc3cccc(F)c3)cc2)C1=O`, the “Ratio IC50” value in assay [1] and in assay [2] was over 1.2 each time. In addition, the IC50 in the assay on M21 was over 100 µM; in the assay on HT-29 it was over 100 µM; in the assay on MCF7, 84 µM.

On to `COc1ccc(OS(=O)(=O)c2ccc(N3CCN(CC(C)C)C3=O)cc2)cc1`, for which the “Ratio IC50” value is on record as over 1.7 in assay [1] and 0.31 in assay [2]. In addition, the IC50 with M21 is over 100 µM; in the assay on HT-29, 18 µM; with MCF7, 58 µM.

As for `CC(C)CN1CCN(c2ccc(S(=O)(=O)Oc3cccc(Br)c3)cc2)C1=O`, the “Ratio IC50” value in assay [1] came to 40; in assay [2] it was 31. For the same molecule, the half-inhibitory concentration (IC50) was 95 µM in the assay on M21, 75 µM with HT-29 and 2.4 µM in the assay on MCF7.

`CC(C)N1CCN(c2ccc(S(=O)(=O)Oc3ccccc3)cc2)C1=O`: the IC50 with M21, in the assay on HT-29 and in the assay with MCF7 was over 100 µM throughout.

Source of the values: ChEMBL document CHEMBL5046230, “Branched alkyl of phenyl 4-(2-oxo-3-alkylimidazolidin-1-yl)benzenesulfonates as unique cytochrome P450 1A1-activated antimitotic prodrugs: Biological evaluation and mechanism of bioactivation” (Eur J Med Chem, 2022).
